# According to PMC10540603 (Biochemical and biophysical research communications, 2022):
# Changes are numbered by the printed parent chain.
# Assays:
# CquiOrco = target: T1, CquiOrco (Culex quinquefasciatus, UniProt Q309I4); test: two-electrode voltage clamp, Xenopus oocytes; format: cell-based; settings: agonist; coreceptor expressed alone; pH 7.6
# T1 sequence (Q309I4 1-480): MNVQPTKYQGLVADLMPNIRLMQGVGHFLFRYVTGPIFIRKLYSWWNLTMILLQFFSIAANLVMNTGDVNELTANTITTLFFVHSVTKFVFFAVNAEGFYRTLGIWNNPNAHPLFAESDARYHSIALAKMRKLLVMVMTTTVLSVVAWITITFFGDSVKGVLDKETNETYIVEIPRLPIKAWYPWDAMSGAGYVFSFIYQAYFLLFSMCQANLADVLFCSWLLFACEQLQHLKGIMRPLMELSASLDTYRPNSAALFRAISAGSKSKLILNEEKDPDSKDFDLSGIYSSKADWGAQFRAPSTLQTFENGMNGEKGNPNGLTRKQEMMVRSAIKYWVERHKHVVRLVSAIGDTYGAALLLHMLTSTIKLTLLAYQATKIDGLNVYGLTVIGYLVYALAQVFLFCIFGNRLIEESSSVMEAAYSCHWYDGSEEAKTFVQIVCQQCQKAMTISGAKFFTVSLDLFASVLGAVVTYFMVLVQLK
# CquiOR32/CquiOrco = target: T2, CquiOR32/CquiOrco (Culex quinquefasciatus, UniProt A0A0K0KUF8); test: two-electrode voltage clamp, Xenopus oocytes; format: cell-based; settings: 1 mM source dose, -80 mV, pH 7.6
# T2 sequence (A0A0K0KUF8 1-397): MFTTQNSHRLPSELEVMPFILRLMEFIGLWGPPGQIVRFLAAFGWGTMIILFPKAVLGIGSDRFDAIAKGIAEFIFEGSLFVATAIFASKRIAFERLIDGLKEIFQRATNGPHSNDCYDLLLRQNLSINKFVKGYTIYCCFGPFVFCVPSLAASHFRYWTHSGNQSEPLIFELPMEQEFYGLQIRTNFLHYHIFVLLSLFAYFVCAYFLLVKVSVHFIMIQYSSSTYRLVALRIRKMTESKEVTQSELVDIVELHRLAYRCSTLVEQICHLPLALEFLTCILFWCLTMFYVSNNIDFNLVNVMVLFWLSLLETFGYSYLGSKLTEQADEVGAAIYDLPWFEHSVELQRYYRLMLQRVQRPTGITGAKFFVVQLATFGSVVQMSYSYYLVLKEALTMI
# T2 sequence (UPI0018E3CDA7 1-480 partner): T1 sequence (Q309I4 1-480) with K267E, V399I
structure (smiles),measurement,setting,value
"CCn1c(SCC(=O)Nc2ccc(C(C)C)cc2)nnc1-c1ccncc1 [OLC12, 2-{[4-Ethyl-5-(4-pyridinyl)-4H-1,2,4-triazol-3-yl]sulfanyl}-N-(4-isopropylphenyl)acetamide]","two-electrode voltage clamp, Xenopus oocytes",CquiOrco,CquiOrco-expressing oocytes generated inward currents when challenged with OLC12
CC12CCC(C1)C(C)(C)C2=O (stereo not drawn) [fenchone],"two-electrode voltage clamp, Xenopus oocytes","CquiOR32/CquiOrco; inhibitor, outward currents",more prominent than the outward currents elicited by fenchone and eucalyptol
COC(=O)c1ccccc1O [methyl salicylate],"two-electrode voltage clamp, Xenopus oocytes","CquiOR32/CquiOrco; agonist, inward currents",Methyl salicylate-elicited inward currents recorded with CquiOR32/CquiOrco-expressing oocytes
